In patent US20200207734A1, “HETEROCYCLIC COMPOUND AND USE THEREOF” (Takeda Pharmaceutical Company Limited, priority 2017, published 2020):

What follows are compounds tested against T1, human orexin type 2 receptor (Homo sapiens, UniProt O43614) (assay: Measurement of orexin type 2 receptor agonist activity (calcium fluorescence, CHO cells expressing hOX2R)). Conditions: test compound 3 μM; CHO cells expressing human OX2 receptor; DMSO = 0%, orexin A (human) = 100%.
T1 construct: human orexin type 2 receptor cDNA was inserted into pcDNA3.1(+) plasmid vector (Invitrogen); expressed in transfected cells
T1 sequence (O43614 1-444): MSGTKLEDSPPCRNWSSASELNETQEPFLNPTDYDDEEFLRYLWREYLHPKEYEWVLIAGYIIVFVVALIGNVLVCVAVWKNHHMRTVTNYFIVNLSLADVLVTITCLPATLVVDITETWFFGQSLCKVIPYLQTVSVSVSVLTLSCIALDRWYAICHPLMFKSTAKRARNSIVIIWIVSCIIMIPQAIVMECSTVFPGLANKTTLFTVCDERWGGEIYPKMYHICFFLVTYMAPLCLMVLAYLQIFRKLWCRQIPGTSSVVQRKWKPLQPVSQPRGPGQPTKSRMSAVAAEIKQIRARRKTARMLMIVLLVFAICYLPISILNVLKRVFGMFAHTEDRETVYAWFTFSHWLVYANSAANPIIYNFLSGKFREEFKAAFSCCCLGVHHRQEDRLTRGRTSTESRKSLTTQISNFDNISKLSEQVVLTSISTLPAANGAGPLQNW
Format: cell-based
Summary of the method: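 CHO-dhfr cells stably expressing hOX2R, loaded with Fluo-4 AM in HBSS/20 mM HEPES/0.1% BSA with probenecid, then given test compound. Calcium fluorescence was read for about 2 min 40 sec. Activity (%) was scaled between DMSO (0%) and 10 nM final human orexin A (100%).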

SMILES | OX2R agonist activity (3 μM, %) [%]
CCS(=O)(=O)N[C@H]1CCN(C(=O)C(C)(C)O)[C@H]1Cc1cccc(-c2cc(F)cc(F)c2)c1F [Example 435, N-((2S,3S)-1-(2-hydroxy-2-methylpropanoyl)-2-((2,3′,5′-trifluorobiphenyl-3-yl)methyl)pyrrolidin-3-yl)ethanesulfonamide] | 107
CCS(=O)(=O)N[C@H]1CCN(C(=O)C(C)(C)O)[C@H]1Cc1cccc(-c2cc(F)cc(Cl)c2)c1F [Example 437, N-((2S,3S)-2-((3′-chloro-2,5′-difluorobiphenyl-3-yl)methyl)-1-(2-hydroxy-2-methylpropanoyl)pyrrolidin-3-yl)ethanesulfonamide] | 99
CC(C)(O)C(=O)N1CC[C@H](NS(=O)(=O)C2CC2)[C@@H]1Cc1cccc(-c2cc(F)cc(F)c2)c1F [Example 439, N-((2S,3S)-1-(2-hydroxy-2-methylpropanoyl)-2-((2,3′,5′-trifluorobiphenyl-3-yl)methyl)pyrrolidin-3-yl)cyclopropanesulfonamide] | 98
CS(=O)(=O)N[C@H]1CCN(C(=O)C2CCO2)[C@H]1Cc1cccc(-c2cc(F)cc(F)c2)c1F (stereo partly drawn) [Example 441, N-{(2S,3S)-1-(oxetane-2-carbonyl)-2-[(2,3′,5′-trifluoro[1,1′-biphenyl]-3-yl)methyl]pyrrolidin-3-yl}methanesulfonamide] | 99
CC(C)(CO)C(=O)N1CC[C@H](NS(C)(=O)=O)[C@@H]1Cc1cccc(-c2cc(F)cc(F)c2)c1F [Example 457, N-{(2S,3S)-1-(3-hydroxy-2,2-dimethylpropanoyl)-2-[(2,3′,5′-trifluoro[1,1′-biphenyl]-3-yl)methyl]pyrrolidin-3-yl}methanesulfonamide] | 103
O=C(N1CCC1)N1CC[C@H](NS(=O)(=O)CF)[C@@H]1Cc1cccc(-c2cccc(F)c2)c1 [Example 459, N-{(2S,3S)-1-(azetidine-1-carbonyl)-2-[(3′-fluoro[1,1′-biphenyl]-3-yl)methyl]pyrrolidin-3-yl}-1-fluoromethanesulfonamide] | 93
O=C(N1CCC1)N1CC[C@H](NS(=O)(=O)CF)[C@@H]1Cc1cccc(-c2ccccc2)c1 [Example 460, N-{(2S,3S)-1-(azetidine-1-carbonyl)-2-[([1,1′-biphenyl]-3-yl)methyl]pyrrolidin-3-yl}-1-fluoromethanesulfonamide] | 92
O=C(N1CCC1)N1CC[C@H](NS(=O)(=O)C2CC2)[C@@H]1Cc1cccc(-c2cccc(F)c2)c1 [Example 462, N-{(2S,3S)-1-(azetidine-1-carbonyl)-2-[(3′-fluoro[1,1′-biphenyl]-3-yl)methyl]pyrrolidin-3-yl}cyclopropanesulfonamide] | 112
O=C(N1CCC1)N1CC[C@H](NS(=O)(=O)C2CC2)[C@@H]1Cc1cccc(-c2ccccc2)c1 [Example 463, N-{(2S,3S)-1-(azetidine-1-carbonyl)-2-[([1,1′-biphenyl]-3-yl)methyl]pyrrolidin-3-yl}cyclopropanesulfonamide] | 105
O=C(N1CCC1)N1CC[C@H](NS(=O)(=O)CF)[C@@H]1Cc1cccc(-c2ccccc2)c1F [Example 466, N-{(2S,3S)-1-(azetidine-1-carbonyl)-2-[(2-fluoro[1,1′-biphenyl]-3-yl)methyl]pyrrolidin-3-yl}-1-fluoromethanesulfonamide] | 108
O=C(N1CCC1)N1CC[C@H](NS(=O)(=O)CF)[C@@H]1Cc1cccc(-c2cccc(F)c2)c1F [Example 467, N-{(2S,3S)-1-(azetidine-1-carbonyl)-2-[(2,3′-difluoro[1,1′-biphenyl]-3-yl)methyl]pyrrolidin-3-yl}-1-fluoro-methanesulfonamide] | 101
CCS(=O)(=O)N[C@H]1CCN(C(=O)C2CCC2)[C@H]1Cc1cccc(-c2ccccc2)c1 [Example 471, N-[(2S,3S)-2-[([1,1′-biphenyl]-3-yl)methyl]-(cyclobutanecarbonyl)pyrrolidin-3-yl]ethanesulfonamide] | 116
CC(C)(O)C(=O)N1CC[C@H](NS(=O)(=O)C2(F)CC2)[C@@H]1Cc1cccc(-c2ccccc2)c1F [Example 479, 1-fluoro-N-[(2S,3S)-2-[(2-fluoro[1,1′-biphenyl]-3-yl)methyl]-1-(2-hydroxy-2-methylpropanoyl)pyrrolidin-3-yl] cyclopropane-1-sulfonamide] | 103
CC(C)(O)C(=O)N1CC[C@H](NS(=O)(=O)C2(F)CC2)[C@@H]1Cc1cccc(-c2cc(F)cc(F)c2)c1F [Example 480, 1-fluoro-N-{(2S,3S)-1-(2-hydroxy-2-methylpropanoyl)-2-[(2,3′,5′-trifluoro[1,1′-biphenyl]-3-yl)methyl]pyrrolidin-3-yl}cyclopropane-1-sulfonamide] | 113
CCS(=O)(=O)N[C@H]1CCN(C(=O)C(C)(C)O)[C@H]1Cc1cccc(-c2cccc(F)c2)c1F [Example 488, N-((2S,3S)-2-((2,3′-difluorobiphenyl-3-yl)methyl)-1-(2-hydroxy-2-methylpro-panoyl)pyrrolidin-3-yl)ethanesulfona-mide] | 101
